How the values were obtained:
Format in all cases: physicochemical
[1] = Effect of pH on formation of related compounds, aqueous composition stored at 27.5° C. for 7 months
Description: (§1) The effect of the pH of the aqueous fludarabine phosphate composition on the stability of the compositions at elevated temperatures also is shown in Tables 2 and 3. The concentration of fludarabine phosphate in each of the compositions of Tables 2 and 3 was 25 mg/mL.

[2] = Effect of pH on formation of related compounds, aqueous composition stored at 40° C. for 1 month followed by one-year storage at 2-8° C.; details: 25 mg/mL, 40° C. 1 month then one year 2-8° C.
Description: as §1

[3] = Effect of pH on formation of related compounds, aqueous compositions stored at 40° C. for 1 month
Description: The effect of the pH of the aqueous fludarabine phosphate composition on the stability of the compositions at elevated temperatures is shown in the following table. The concentration of fludarabine phosphate in each of the compositions of Table 1 was 25 mg/mL.
Its level of “total related compounds” was 0.1%. In contrast, after being stored for 1 months at 40° C., the fludarabine phosphate composition having a pH of 7.7 contained 0.8 of FP-2HA and 1.3% “total related compounds.”

[4] = pH 5.5, 25 mg/mL aqueous composition
[5] = pH 6.5, 25 mg/mL aqueous composition
[6] = pH 7.7, 25 mg/mL aqueous composition
[7] = pH 8.1, 25 mg/mL aqueous composition

Fludarabine phosphate
Concentration of FP-2HA, % ([1]; pH 6.8, 25 mg/mL): 0.33% | Single Largest Other, % ([1]; pH 6.8, 25 mg/mL): 0.1% | Total Related Compounds*, % (excluding fludarabine) ([1]; pH 6.8, 25 mg/mL): 0.43% | Concentration of FP-2HA, % ([1]; pH 7.2, 25 mg/mL): 0.54% | Single Largest Other, % ([1]; pH 7.2, 25 mg/mL): 0.1% | Total Related Compounds*, % (excluding fludarabine) ([1]; pH 7.2, 25 mg/mL): 0.94% | Concentration of FP-2HA, % ([2]; pH 6.0): 0.4% | Single Largest Other, % ([2]; pH 6.0): 0.09% | Total Related Compounds*, % (excluding fludarabine) ([2]; pH 6.0): 0.5% | Concentration of FP-2HA, % ([2]; pH 7.0): 0.32% | Single Largest Other, % ([2]; pH 7.0): 0.1% | Total Related Compounds*, % (excluding fludarabine) ([2]; pH 7.0): 0.34% | Concentration of FP-2HA, % ([2]; pH 7.6): 0.56% | Single Largest Other, % ([2]; pH 7.6): 0.2% | Total Related Compounds*, % (excluding fludarabine) ([2]; pH 7.6): 1.1% | Concentration of FP-2HA, % ([2]; pH 8.1): 0.93% | Single Largest Other, % ([2]; pH 8.1): 0.4% | Total Related Compounds*, % (excluding fludarabine) ([2]; pH 8.1): 2.0% | Concentration of FP-2HA, % [3, 4]: <LOQ | Total Related Compounds*, % (excluding fludarabine) [3, 4]: 0.1% | Concentration of FP-2HA, % [3, 5]: <LOQ | Total Related Compounds*, % (excluding fludarabine) [3, 5]: 0.2% | Concentration of FP-2HA, % [3, 6]: 0.8% | Total Related Compounds*, % (excluding fludarabine) [3, 6]: 1.3% | Concentration of FP-2HA, % [3, 7]: 1.0% | Total Related Compounds*, % (excluding fludarabine) [3, 7]: 2.2%
